From patent US8268873B2 (priority 1999, dated 2012)
Where two headings read alike, the source gives them in different places.

Legend:
human PBMC T cells = test: cells; assay type: cell-based; conditions: 72 h, read-out: T-cells (IC50)
IMPDH human type II = IMPDH human type II (Homo sapiens, UniProt P12268); test: biochemical
human PBMC B cells = test: cells; assay type: cell-based; conditions: read-out: B-cells (IC50)

SMILES | IC50 (human PBMC T cells) [nM] | Ki (IMPDH human type II) [nM] | IC50 (human PBMC B cells; Homo sapiens, 72 h) [nM] | other results
COc1cc(NC(=O)Nc2cccc(CNC(=O)OC[C@H](CC#N)NC(=O)OC(C)(C)C)c2)ccc1-c1cnco1 [Compound 10] | 100 to 1000 |  |  | 
CCC(CCC#N)OC(=O)NCc1cccc(NC(=O)Nc2ccc(-c3cnco3)c(OC)c2)c1 (stereo not shown) [Compound 45] |  | < 10 |  | 
COc1cc(NC(=O)Nc2cccc(CNC(=O)OC3CCC[C@H]3N3CCOCC3)c2)ccc1-c1cnco1 (stereo partly shown) [Compound 80] |  |  | < 100 | 
CC[C@@H](CC#N)OC(=O)NCc1cccc(NC(=O)Nc2ccc(-c3cnco3)c(OC)c2)c1 [Compound 88] |  | < 10 |  | 
CC[C@H](CCC#N)OC(=O)NCc1cccc(NC(=O)Nc2ccc(-c3cnco3)c(OC)c2)c1 [Compound 89] | < 100 |  | < 100 | 
CC[C@H](COC(=O)CN)OC(=O)NCc1cccc(NC(=O)Nc2ccc(-c3cnco3)c(OC)c2)c1 [Compound 95] |  |  |  | Ki (IMPDH human type II; IMPDH human type II, 200 μM IMP, 200 μM NAD, 37° C.): < 10 nM
COc1cc(NC(=O)Nc2cccc(CNC(=O)O[C@H](CN3CCCC3)c3ccccc3)c2)ccc1-c1cnco1 [Compound 98] | < 100 |  | < 100 | 
C=CC(COC(C)=O)OC(=O)NCc1cccc(NC(=O)Nc2ccc(-c3cnco3)c(OC)c2)c1 (stereo not shown) [Compound 133] |  | 10 to 50 |  | 
CCN(C)CCC(OC(=O)NCc1cccc(NC(=O)Nc2ccc(-c3cnco3)c(OC)c2)c1)c1ccccc1 (stereo not shown) [Compound 139] | 100 to 1000 |  | 100 to 1000 | 
COc1cc(NC(=O)Nc2cccc([C@H](C)NC(=O)O[C@H]3CCOC3)c2)ccc1C#N [Compound 185] |  |  |  | IC50 (human PBMC B cells): < 100 nM
